Test results published in patent US20250002435A1, “ARYLATED FENCHONE DERIVATIVES, COMPOSITIONS COMPRISING THEM, PROCESSES FOR THEIR PREPARATION AND USES THEREOF” (priority 2021, published 2025).
Several values for one entry are separate records, joined by “and”; a condition that tells them apart may be missing. Identical values can stand only once. Entries after “also recorded” stand apart in the source; their conditions may differ.

Columns and labels:
mCB1R = mCB1R (Mus musculus (Mouse), UniProt P47746); assay: [3H]CP-55,940 competition displacement binding, crude membranes from mouse brain; settings: for Ki: displacement of [3H]CP-55,940, NB = No binding detected at concentrations up to 10 μM, read-out: Ki (nM) mCB1R
Description: (§1) Affinity for Cannabinoid Receptors. The compounds were further characterized using a radioligand binding assay to determine their affinities for CB1R and CB2R based on each test compound's ability to displace the radiolabeled CB1R/CB2R agonist CP-55,940 from membranes prepared from a mouse brain (a source of CB1R) and membranes of cells expressing the human CB2R. […] Therefore, the compounds were assayed using membranes from CHO-K1 cells expressing the human CB2R (hCB2R).
(§2) Membranes from cells expressing human CB2R were purchased from Charles River, (Cat #A308; Ohio, US). Solutions of test compounds ranging from 0.1 nM to 10 mM were prepared in DMSO. The desired amount of membrane preparation was diluted with ice-cold assay buffer (50 mM Tris-HCl, 2.5 mM EDTA, 5 mM MgCl2, 0.1% BSA, pH 7.4) and was vortexed. […] The assays were incubated for 90 minutes at 30° C. and then immediately filtered on WHATMAN GF/B FilterPaper (Fired) using a Brandel M-24R Harvester followed by six washes with ice cold wash buffer (50 mM Tris-HCl, 2.5 mM EDTA, 5 mM MgCl2, 0.1% BSA, pH 7.4). Radioactivity was detected by adding the FilterPaper directly to the ULTIMA GOLD scintillation cocktail (PerkinElmer), incubation at 20° C. for 60 min and then counted using a Tri-Carb 4910TR liquid scintillation counter.

hCB2R [1] = target: T1, hCB2R (Homo sapiens (Human), UniProt P34972); assay: [3H]CP-55,940 competition displacement binding, membranes of CHO-K1 cells expressing human CB2R; settings: for Ki: displacement of [3H]CP-55,940; for mCB1R/hCB2R: selectivity index from Ki values
Description: as §1, §2

hCB2R [2] = target: T1, hCB2R; assay: [35S]GTPγS binding assay, hCB2R CHO cell membranes; type: biochemical; settings: for functional activity at hCB2R (agonist / inverse agonist): [35S]GTPγS binding; for EC50: [35S]GTPγS binding to hCB2R, two independent experiments in triplicate; for E(max) %: percentage of HU-308 response at 1 μM
Description: Functional Characterization.
The method used for measuring agonist-stimulated binding of [^35S]GTPγS was based on a described protocol. The assays were carried out with GTPγS assay buffer (50 mM Tris HCl (pH 7.4), 0.2 mM EGTA, 9 mM MgCl2, 150 mM NaCl, 1 mg/ml BSA). Briefly, membranes (5 μg protein) were incubated in assay buffer containing 100 μM GDP, 0.05 nM [^35S]GTPγS, test compounds at various concentrations in siliconized glass tubes. Bound ligand was separated from free ligand by vacuum filtration. Nonspecific binding was determined using 10 μM GTPS. Basal binding was assayed in the absence of the ligand and in the presence of GDP.

CNR2 [3] = target: T2, CNR2 (Homo sapiens (Human), UniProt P34972); assay: cAMP Hunter agonist assay, CHO-K1 cells expressing CB2; type: cell-based; settings: for EC50: cells expressing CNR2; for agonist response CNR2: cells expressing CNR2, cAMP
Description: (§3) Cannabinoid receptors belong to G-protein-coupled receptors which may transduce intracellular agonist-antagonist responses regulating in part levels of cAMP within the cells. Fenchone derivates were assayed using Eurofins proprietary assays (i.e. CB1-Antagonist Catalog #86-0007P-2277AN; CB2-Antagonist Catalog ref. 86-0007P-2818AN; CB1-Agonist; Catalog #86-0007P-2277AG; CB2-Agonist-Catalog #86-0007P-2818AG).
(§4) Similarly, for agonist activity, cAMP Hunter™ Gs cell lines overexpress naturally Gs coupled, wild type GPCRs and are designed to detect increases in intracellular cAMP levels in response to agonist stimulation of the receptor. These cell lines are designed to be used in conjunction with the HitHunter® cAMP Assay Detection Kit. For both assays, human CB1 or CB2 receptors were stably transfected CHO-K1 cells and subjected to positive controls, known to activate the increase of cAMP for both receptors (Agonist control 20 μM Forskolin for CB1 and 25 μM Forskolin for CB2) or inhibit cAMP intracellular levels of CB1 ([…] CP55940) or CB2 ([…] CP55940). Cells were seeded in a total volume of 20 μL into white walled, 384-well microplates and incubated at 37° C. overnight. Prior to testing cell plating media was exchanged with 10 uL of Assay buffer (HBSS+10 mM HEPES). Five 5 μL of agonist (test sample, vehicle or positive control) were added to cells and incubated at 37° C. for 30 minutes. Final assay vehicle concentration was 1% and the results are expressed in relation to the control ligand.

CNR1 [4] = target: T3, CNR1 (Homo sapiens (Human), UniProt P21554); assay: cAMP Hunter agonist assay, CHO-K1 cells expressing CB1; type: cell-based
Description: as §3
as §4, with “Five 5 μL of agonist (test sample, vehicle or positive control) were added to cells and incubated at 37° C. for 30 minutes. Final assay vehicle concentration was 1% and the results are expressed in relation to the control ligand.” left out

CNR1 [5] = target: T3, CNR1; assay: cAMP Hunter antagonist assay, CB1; type: cell-based; settings: cAMP antagonist mode
Description: as §3
(§5) Briefly, for antagonist activity, cAMP Hunter™ Gi cell lines overexpress naturally Gi coupled, wild type GPCRs and are designed to detect inhibition of intracellular cAMP production in response to agonist stimulation of the receptor. These cell lines are designed to be used in conjunction with the HitHunter® cAMP Assay Detection Kit.
(§6) Similarly, for agonist activity, cAMP Hunter™ Gs cell lines overexpress naturally Gs coupled, wild type GPCRs and are designed to detect increases in intracellular cAMP levels in response to agonist stimulation of the receptor. These cell lines are designed to be used in conjunction with the HitHunter® cAMP Assay Detection Kit. […]

CNR2 [6] = target: T2, CNR2; assay: cAMP Hunter antagonist assay, CB2; type: cell-based; settings: cAMP antagonist mode
Description: as §3, §5, §6

[7] = test system: Human OA derived articular chondrocytes; assay: cAMP-Glo EC50 in chondrocyte cell cultures; type: cell-based; settings: 45 min treatment
From the text: All human cell cultures were obtained from total knee replacement surgery (TKA) in accordance with Hadassah Medical Center Institutional Review Board approval and in accordance with the Helsinki Declaration ethical principles for medical research involving human subjects (Study #0488-09). Following written informed consent, articular cartilage was obtained from the knee joints of OA patients undergoing total knee arthroplasty (n=51, mean age 71 years, mean body mass index 31 kg/m2, Kellgren and Lawrence score ranging 3-4). Articular cartilage tissue was dissected, chondrocytes isolated and plated as described by Bar Oz et al., (10). Isolated chondrocytes were passaged to passage 3, and plated in 96 well plates with DMEM media containing 10% FCS, 1% Penicillin-streptomycin, 1% Amphotericin B. Cultures were maintained in standard incubation conditions (37° C., 5% CO2) until confluence. All reagents for cell culture were purchased for Biological Industries (Israel, Beit-Haemek Kibutz), unless otherwise indicated. […] Luminescence was measured and a standard curve was simultaneously run per plate. […] Using this ΔRLU value and the linear equation generated from the standard curve, the cAMP concentration was calculated. […]

Chain of mCB1R (P47746 whole entry): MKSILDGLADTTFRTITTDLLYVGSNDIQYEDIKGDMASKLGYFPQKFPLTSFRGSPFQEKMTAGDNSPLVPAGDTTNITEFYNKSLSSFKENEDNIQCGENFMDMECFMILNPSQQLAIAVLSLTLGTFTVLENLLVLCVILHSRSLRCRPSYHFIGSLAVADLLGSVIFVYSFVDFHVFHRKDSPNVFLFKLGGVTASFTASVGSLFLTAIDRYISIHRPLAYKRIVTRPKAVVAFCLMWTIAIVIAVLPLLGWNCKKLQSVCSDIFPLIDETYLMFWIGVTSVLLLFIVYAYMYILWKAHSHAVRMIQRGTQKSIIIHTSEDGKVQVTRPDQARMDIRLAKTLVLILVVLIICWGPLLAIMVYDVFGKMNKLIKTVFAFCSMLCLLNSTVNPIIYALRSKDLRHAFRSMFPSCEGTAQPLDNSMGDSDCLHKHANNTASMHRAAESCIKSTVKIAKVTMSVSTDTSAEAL
T1 sequence (P34972 whole entry): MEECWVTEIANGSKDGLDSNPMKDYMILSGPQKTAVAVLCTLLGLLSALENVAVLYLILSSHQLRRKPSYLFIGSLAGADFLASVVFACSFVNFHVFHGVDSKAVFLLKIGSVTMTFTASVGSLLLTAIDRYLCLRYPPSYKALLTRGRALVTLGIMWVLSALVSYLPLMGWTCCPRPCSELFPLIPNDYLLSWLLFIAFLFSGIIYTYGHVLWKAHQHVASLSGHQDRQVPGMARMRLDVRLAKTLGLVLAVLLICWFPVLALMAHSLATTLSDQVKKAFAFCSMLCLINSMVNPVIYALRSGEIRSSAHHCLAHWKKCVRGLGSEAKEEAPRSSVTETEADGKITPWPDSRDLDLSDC

| SMILES | Ki (mCB1R) [nM] | Ki (hCB2R [1]) [nM] | selectivity for the hCB2R over the mCB1R (hCB2R [1]; from Ki values) [fold] | mCB1R/hCB2R (hCB2R [1]) | functional activity at hCB2R (agonist / inverse agonist) (hCB2R [2]) | EC50 (hCB2R [2]) | E(max) % (hCB2R [2]) [%] | EC50 (CNR2 [3]) [nM] | agonist response CNR2 (CNR2 [3]) | agonist response CNR1 (CNR1 [4]) | antagonistic effect CNR1 (CNR1 [5]) | antagonistic effect CNR2 (CNR2 [6]) | EC50 in chondrocytes compared with HU308 [7] | inhibition of [3H]CP-55,940 binding to mCB1R (mCB1R; in words) |
| --- | --- | --- | --- | --- | --- | --- | --- | --- | --- | --- | --- | --- | --- | --- |
| CCCCCCC(C)(C)c1cc(OC)c([C@]2(O)C3(C)CCC(C3)C2(C)C)c(OC)c1 (some centres unmarked) [Compound 1d, 2-(2,6′-dimethoxy-4′-(2″-methyloctan-2″-yl)phenyl)-1,3,3-trimethyl-bicyclo[2.2.1]heptan-2-ol] | 427 | 3.51 | 121 | 121.8 | agonist | 2.6 nM and 2.59 nM | 89.63 | 10 | noticeable response | no response | no detectable antagonistic effect | no detectable antagonistic effect | low EC50; also recorded: superior EC50 over HU308 | – |
| CCCCCc1cc(OC)c(C2(O)C3(C)CCC(C3)C2(C)C)c(OC)c1 (single isomer, unassigned) [Compound 1b, 2-(2,6′-dimethoxy-4′-pentylphenyl)-1,3,3-trimethylbicyclo[2.2.1]heptan-2-ol] | 2290 | 14.4 | – | 158.3 | agonist | 11.6 nM | 65.1 | 50 | noticeable response | no response | no detectable antagonistic effect | no detectable antagonistic effect | low EC50; also recorded: superior EC50 over HU308 | no detectable inhibition |
